Like-named read-outs stand apart in the source and are kept apart here.
Legend:
[1] = radioactivity in organs after injection in the mouse (Example 10); type: in vivo; conditions: souris, 329.10^-12 mol
Text: Dans cet exemple, on teste chez la souris les propriétés du [^123I] - composé 6 comme traceur radioactif pour l'examen du myocarde.
Après injection de 500.10^-12 mol de [^123I]-composé 6, les animaux sont sacrifiés et les organes d'intérêt récupérés et comptés. Le tableau 3 qui suit reporte les valeurs de la radioactivité trouvée dans les organes ou liquides biologiques exprimées en pourcentage de la dose injectée par gramme d'organe. TABLEAU 3 :
Dans le tableau 4 qui suit, on a donné à titre comparatif les résultats obtenus lorsqu'on injecte 329.10^-12 mol de [^3H]CGP 12177.

[2] = biodistribution study in the mouse (Example 22); type: in vivo, souris; conditions: for Biodistribution Coeur / Biodistribution Poumon: souris swiss femelles, injection intraveineuse
Protocol: L'étude de la biodistribution des radioligands chez la souris, permet d'apprécier l'intensité relative de la fixation cardiaque de la molécule et son évolution dans le temps.
Après marquage à l'iode 123 et purification par CLHP 20µCi environ de produit sont mis en solution dans 5 ml d'une solution : éthanol 20%-sérum physiologique 80%. Après injection intraveineuse de 25 µl de cette solution dans la queue de souris vigiles (souris swiss femelles de 20 à 25 g), celles-ci (5 à chaque fois) sont sacrifiées à différents temps après l'injection. On mesure pour chaque souris les activités cardiaques, hépatique, rénale et pulmonaire. Les résultats sont exprimés en pourcentage de la dose injectée par gramme d'organe.
Le CGP12177 étant la référence, un lot de souris a été étudié après injection de CGP 12177 marqué au tritium.

[3] = octanol-water partition coefficient at room temperature; type: physicochemical; conditions: température ambiante
[4] = target: récepteurs β adrénergiques; test: displacement of [^3H]CGP 12177 previously bound on newborn rat cardiomyocytes; type: binding, rats nouveau-nés; conditions: read-out: CI50 (the source's name)
Text: Dans cet exemple, on teste l'affinité du composé 6 marqué avec ^123I vis-à-vis des récepteurs β adrénergiques.
On étudie sur cardiomyocytes de rats nouveau-nés la capacité du composé 6 à déplacer le [^3H]CGP 12177 préalablement fixé sur les récepteurs.

[5] = system: récepteurs β adrénergiques; test: isolated perfused rat heart (Langendorff), antagonism of isoprenaline on dP/dt max
Protocol: Dans cet exemple, on teste la propriété pharmacologique antagoniste du composé 6 vis-à-vis des récepteurs β adrénergiques.
L'expérience est conduite sur coeur de rat isolé et perfusé selon la technique de Langendorff.
Après une préperfusion de 25 minutes avec une solution de Krebs-Henseleit, le coeur est perfusé avec de l'isoprénaline à la concentration de 10^-8M pendant 10 minutes; puis avec une solution d'isoprénaline à 10^-8M associée à la molécule à tester à la concentration de 10^-6M.
Si la molécule à tester diminue la dP/dt max en présence d'isoprénaline, on pourra affirmer que cette molécule se comporte comme un antagoniste de l'isoprénaline vis-à-vis des récepteurs β adrénergiques.

[6] = [^3H]CGP 12177 5.10^-9M, 30 minutes d'incubation, cardiomyocytes de rats nouveau-nés

(2S)-4 (3-t-butylamino-2-hydroxypropoxy)-benzimidazol-2-one [[^3H]-CGP 12177, reference compound]
radioactivité COEUR ([1]; 1 min): 6,8±4 pourcentage de la dose injectée par gramme d'organe | radioactivité POUMON ([1]; 1 min): 26,3±2,1 pourcentage de la dose injectée par gramme d'organe | radioactivité COEUR ([1]; 2 min): 6,3±0,3 pourcentage de la dose injectée par gramme d'organe | radioactivité POUMON ([1]; 2 min): 31,6±6,8 pourcentage de la dose injectée par gramme d'organe | radioactivité COEUR ([1]; 5 min): 5,9±0,8 pourcentage de la dose injectée par gramme d'organe | radioactivité POUMON ([1]; 5 min): 29,7±5,8 pourcentage de la dose injectée par gramme d'organe | radioactivité COEUR ([1]; 10 min): 5,3±0,2 pourcentage de la dose injectée par gramme d'organe | radioactivité POUMON ([1]; 10 min): 29±5,1 pourcentage de la dose injectée par gramme d'organe | Biodistribution Coeur ([2]; 1 min.): 9 ± 1,4 pourcentage de la dose injectée par gramme d'organe | Biodistribution Poumon ([2]; 1 min.): 66,3 ± 9,2 pourcentage de la dose injectée par gramme d'organe | Biodistribution Coeur ([2]; 2 min.): 7,2 ± 0,9 pourcentage de la dose injectée par gramme d'organe | Biodistribution Poumon ([2]; 2 min.): 44,3 ± 8,6 pourcentage de la dose injectée par gramme d'organe | Biodistribution Coeur ([2]; 5 min.): 7,0 ± 1 pourcentage de la dose injectée par gramme d'organe | Biodistribution Poumon ([2]; 5 min.): 37,9 ± 9,3 pourcentage de la dose injectée par gramme d'organe | Biodistribution Coeur ([2]; 10 min.): 6,7 ± 1,3 pourcentage de la dose injectée par gramme d'organe | Biodistribution Poumon ([2]; 10 min.): 42 ± 8,5 pourcentage de la dose injectée par gramme d'organe | activité dans le myocarde (plateau) ([2]; souris, plateau dès la 2ème minute après l'injection): ~7 % de la dose injectée par gramme d'organe | COEFFICIENT DE PARTAGE OCTANOL-EAU ([3]; pH=4,2): 0,0088 | COEFFICIENT DE PARTAGE OCTANOL-EAU ([3]; pH=7,4): 0,18

CC(C)NCC(O)COc1ccc(NC(=O)CCC=CI)cc1 (stereo not shown) [composé 6, 1-[4-(4-iodobut-3-énamido)phénoxy]-3-N-isopropyl aminopropan-2-ol]
IC50 [4, 6]: 2000 nM | IC50 ([4]; summary, unit inferred): 2040 nM | DP/dt max ([5]; Isoprénaline + molécule (10^e+8 min), isoprénaline 10^-8M, test molecule 10^-6M, n=6): 973±240 mmHg/min | pourcentage d'inhibition vis-à-vis de l'isoprénaline ([5]; effet antagoniste, summary): 116% | effect on the action of isoprénaline on dP/dt max ([5]; isoprénaline 10^-8M + molecule 10^-6M): antagonise complètement l'action de l'isoprénaline

CC(C)NCC(O)COc1ccc(CC(N)=O)cc1 (stereo not shown) [atenolol, reference compound]
IC50 [4, 6]: 19000 nM
